Source: patent US20090082304A1, “Methods of Treating Hematological Malignancies with Nucleoside Analog Drugs” (NORTHWESTERN UNIVERSITY, priority 2004, published 2009)

Assays:
Assay type in all cases: cell-based
[1] = system: poly (ADP-ribose) polymerase; assay: PARP cleavage immunoblot in MM.1 S cells; details: 10 μM
Description: (§1) 5×10^6 were cells treated with 10 μM 8-NH2-Ado for the indicated times and harvested. Cell pellets were washed with cold phosphate-buffered saline (PBS; 8.1 g NaCl, 1.14 g Na2HPO4, 0.22 g KCl, and 0.25 g/L KH2PO4) and incubated with lysis buffer (50 mM HEPES, 150 mM NaCl, 1.5 mM MgCl2, 1 mM EDTA pH 8.0, 100 mM NaFI, 10 mM Na Pyrophosphate, 500 μM PMSF, 0.5% Triton X-100, 10% glycerol) at 4° C. for one hour. Lysates were centrifuged at 4° C. for 1 minute at 9000×g, and the supernatants were collected and stored at −20° C. Protein concentration was determined by Bio-Rad protein assay (BioRad Laboratories, Hercules, Calif.). Protein, at a concentration of 30 μg, was mixed with sample buffer (125 mM Tris, pH 6.8, 4% SDS, 20% glycerol, 100 mM Dithiothreitol (DTT), and 0.05% bromophenol blue), and fractionated on a pre-cast 8-16% Tris-Glycine gel (Invitrogen/Novex, Carlsbad, Calif.). […]
MM.1 S cells were exposed to 10 μM 8-NH2-Ado for 0, 0.5, 1, 2, 4 or 6 hours, after which cells were lysed as previously described. […] Total protein levels were also assessed to ensure equal loading and transfer (data not shown). […]

ERK1/2 = assay: Immunoblot of phospho-ERK1/2 in MM.1 S cells; details: 10 μM
Description: 5×10^6 were cells treated with 10 μM 8-NH2-Ado for the indicated times and harvested. Cell pellets were washed with cold phosphate-buffered saline (PBS; 8.1 g NaCl, 1.14 g Na2HPO4, 0.22 g KCl, and 0.25 g/L KH2PO4) and incubated with lysis buffer (50 mM HEPES, 150 mM NaCl, 1.5 mM MgCl2, 1 mM EDTA pH 8.0, 100 mM NaFI, 10 mM Na Pyrophosphate, 500 μM PMSF, 0.5% Triton X-100, 10% glycerol) at 4° C. for one hour. Lysates were centrifuged at 4° C. for 1 minute at 9000×g, and the supernatants were collected and stored at −20° C. Protein concentration was determined by Bio-Rad protein assay (BioRad Laboratories, Hercules, Calif.). Protein, at a concentration of 30 μg, was mixed with sample buffer (125 mM Tris, pH 6.8, 4% SDS, 20% glycerol, 100 mM Dithiothreitol (DTT), and 0.05% bromophenol blue), and fractionated on a pre-cast 8-16% Tris-Glycine gel (Invitrogen/Novex, Carlsbad, Calif.). Proteins were then transferred to a Polyvinylidene Fluoride (PVDF) membrane (Immobilon-P, Millipore, Bedford, Mass.): Following protein transfer, membranes were blocked with 5% non-fat milk in PBS-T (PBS with 0.1% Tween), incubated with the primary antibody overnight at 4° C. and subsequently with horseradish peroxidase linked secondary antibody (Amersham, Arlington Heights, Ill.). Blots were developed using ECL Plus Chemiluminescent Western Blotting Detection reagent (Amersham, Arlington Heights, Ill.) and the signal was visualized with X-ray film (Hyperfilm, Amersham, Arlington Heights, Ill.). For reprobing purposes, blots were stripped using Restore Western Blot Stripping Buffer from Pierce Biotechnology (Rockford, Ill.). Phospho-MKK3/6 (Ser189/207), phospho-p38 (Thr180/Tyr182), phospho-ATF-2 (Thr69/71), phospho-c-Raf (Ser259), phospho-MEK1/2 (Ser217/221), total MEK1/2, phospho-ERK1/2 (Thr202/Tyr204), total ERK1/2, phospho-p90RSK (Ser380), total RSK, phospho-PDK1 (Ser241), total PDKI, phospho-PTEN (Ser380), total PTEN, phospho-Akt (Ser473), total Akt, phospho-GSK-3β (Ser9), total GSK-3β, phospho-FKHRLI (Thr32)/-FKHR (Thr24), phospho-FKHR (Ser256) primary antibodies were obtained from Cell Signaling Technology (Beverly, Mass.). Total MKK3, total MKK6, total p38, total ATF-2, total c-Raf, total FKHR, total FKHRLI, phospho-JNK and total JNK were purchased from Santa Cruz Biotechnology (Santa Cruz, Calif.). Caspase 3, caspase 9, and PARP antibodies were obtained from Pharmingen (San Diego, Calif.) and anti-MKP1 from Upstate (Lake Placid, N.Y.). Anti-caspase 8 mouse serum was a generous gift of Dr. Marcus Peter (University of Chicago).
MM.1 S cells were exposed to 10 μM 8-NH2-Ado for 0, 0.5, 1, 2, 4 and 6 hours, after which cells were lysed as previously (Example 2). 30 μg of protein was separated by gel electrophoresis, transferred to PVDF membrane, and probed with phosphorylation-specific antibodies to MKK3/6, p38 MAPK, ATF-2, MEK1/2, ERK1/2, p90RSK, JNK1, PDK1, Akt, FKHRL1 and GSK-3β.
MM. I S cells were treated with 10 μM 8-chloro-adenosine for 0, 0.5, 1, 2, 4 or 6 hours or 10 μM of cytarabine, fludarabine, gemcitabine or 8-amino-adenosine for 4 hours. Cells were lysed as previously described and 30 μg of protein was separated by gel electrophoresis, transferred to PVDF membrane, and probed with phospho-p38 MAPK (Thr180/Tyr182) antibody.
MM.1 S cells were grown in dextrose-free media and treated with 2 μM Antimycin A, 5 mM 2-DOG, and varying concentrations of dextrose for 90 minutes. Cellular ATP levels were determined using triplicate samples in a luciferase based assay and are expressed here as a percentage of untreated control.

PTEN = assay: Immunoblot of PTEN (total and phospho) in MM.1 S cells; details: 10 μM, 0-6 hours
Description: as §1
In addition, the effect of 8-NH2-Ado treatment on PTEN, which encodes a key phosphatase involved in the negative regulation of the PI3K/Akt signaling pathway was assessed (FIG. 5B). […]

endogenous ATP = assay: Endogenous ATP pools
Description: MM.IS cells were grown in dextrose-free RPMI-1640 media (Invitrogen, Baltimore, Md.) supplemented with 10% fetal bovine serum, 2 mM glutamine, 100 units/ml penicillin, 100 μg/ml streptomycin and 2.5 μg/ml fungizone. Cellular ATP levels were manipulated by the addition of either antimycin (2 μM, a mitochondrial inhibitor) or 2-deoxy-D-glucose (2-DOG, 5 mM, an inhibitor of glycolysis) from Sigma (St. Louis, Mo.) with and without varying concentrations of dextrose. Six different metabolic conditions were examined: 1) antimycin without dextrose, 2) antimycin+0.25 mM dextrose, 3) antimycin+1 mM dextrose, 4) antimycin+10 mM dextrose, 5) 2-DOG without dextrose, 6) 2-DOG+10 mM dextrose. Control cells were not subjected to ATP depletion; 10 mM dextrose was added to dextrose-free RMPI-1640. Endogenous ATP was measured in a luciferase-based assay using the ATP Determination Kit from Molecular Probes (Eugene, Oreg.) and the levels corresponding to each treatment were normalized to untreated controls (20).

In the case of `Nc1ncnc2c1nc(N)n2[C@@H]1O[C@H](CO)[C@@H](O)[C@H]1O` [8-NH2-Ado, 8-amino-adenosine], the “start of cleavage of poly (ADP-ribose) polymerase” value [1] is reported as no less than 2 h, the “phosphorylation of ERK1/2” value (ERK1/2; 4 hours, data not shown) is reported as “dramatic loss of phosphorylation” and the “Phosphorylation of the ERK1/2 kinases” value (ERK1/2; by 30 minutes) is reported as “decreases significantly”. For the same molecule, the “Phosphorylation of the ERK1/2 kinases” value (ERK1/2; by 2 hours) was “declines to negligible levels”, the “total and phospho-PTEN levels” value (PTEN) was “unaltered” and the “endogenous ATP pools” value (endogenous ATP) was “dramatic shifts”.
